For one data set, the target named is T1, A2A receptor (ADORA2A) (Homo sapiens, UniProt P29274).
T1 construct: expressed in transfected cells
Description: GPCR selectivity cellular assay. Format: cell-based. As to conditions: Agonism; read-out: Agonist Activity (EC50).

Another data set concerns the target T2, 5-HT1B receptor (HTR1B) (Homo sapiens, UniProt P28222).
T2 construct: expressed in transfected cells
Description: GPCR selectivity cellular assay. As to conditions: Agonism; read-out: Agonist Activity (EC50). Format: cell-based. On the procedure:
(§1) tagonists, with little activity detected on other GPCRs. Antagonist and/or agonist activities of the two compounds were determined in cellular assays for 20 human G-protein coupled receptors (GPCR) beside MRGPRX2. Recombinant over-expression systems in mammalian cells were used for all assays listed in this table. […]
(§2) reported as ‘>’ the highest compound concentration allowed in that assay.
(§3) GPCR Target Name Gene symbol Mode of Activity Compound-A Compound-B […]
(§4) Agonist Activity (EC50 ) or Antagonist Activity (IC50 ), nM […]

Data set [1] has as its target T3, a1B-Adrenoreceptor (ADRA1B) (Homo sapiens, UniProt P35368).
T3 construct: expressed in transfected cells
Kind of data set: GPCR selectivity cellular assay. Type of data set: cell-based. The note with it: Antagonism; read-out: Antagonist Activity (IC50). The protocol: as §1, §2, §3, §4

The target of another data set is T4, M1 receptor (CHRM1) (Homo sapiens, UniProt P11229).
T4 construct: expressed in transfected cells
T4 sequence (P11229 1-460): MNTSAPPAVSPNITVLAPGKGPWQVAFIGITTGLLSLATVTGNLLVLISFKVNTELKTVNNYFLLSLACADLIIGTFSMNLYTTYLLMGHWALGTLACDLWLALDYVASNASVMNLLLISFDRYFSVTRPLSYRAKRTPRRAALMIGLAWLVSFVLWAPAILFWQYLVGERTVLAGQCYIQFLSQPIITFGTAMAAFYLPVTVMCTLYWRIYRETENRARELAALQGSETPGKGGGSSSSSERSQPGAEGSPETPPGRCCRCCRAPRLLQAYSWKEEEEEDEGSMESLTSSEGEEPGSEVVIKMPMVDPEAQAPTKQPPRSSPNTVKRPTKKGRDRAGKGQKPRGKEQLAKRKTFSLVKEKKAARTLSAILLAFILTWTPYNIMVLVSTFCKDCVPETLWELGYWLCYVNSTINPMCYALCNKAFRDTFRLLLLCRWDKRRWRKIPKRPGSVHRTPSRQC
Description: GPCR selectivity cellular assay. Type of data set: cell-based. The note with it: for pEC50: Agonism, read-out: Agonist Activity (EC50); for pIC50: Antagonism, read-out: Antagonist Activity (IC50). The protocol: as §1, §2, §3, §4

The next data set addresses 5-HT2A receptor (HTR2A) (Homo sapiens, UniProt P28223). Description: GPCR selectivity cellular assay. Format: cell-based. The protocol:
as §1, §2, §3, §4

The target in another data set is NK1 receptor (TACR1) (Homo sapiens, UniProt P25103). Description: GPCR selectivity cellular assay. Type of data set: cell-based. As to conditions: Antagonism; read-out: Antagonist Activity (IC50). On the procedure:
as §1, §2, §3, §4

Another data set deals with T5, V1A receptor (AVPR1A) (Homo sapiens, UniProt P37288).
T5 construct: expressed in transfected cells
Kind of data set: GPCR selectivity cellular assay. Format: cell-based. The note with it: Antagonism; read-out: Antagonist Activity (IC50). The protocol: as §1, §2, §3, §4

The next data set has as its target T6, M2 receptor (CHRM2) (Homo sapiens, UniProt P08172).
T6 construct: expressed in transfected cells
T6 sequence (P08172 1-466): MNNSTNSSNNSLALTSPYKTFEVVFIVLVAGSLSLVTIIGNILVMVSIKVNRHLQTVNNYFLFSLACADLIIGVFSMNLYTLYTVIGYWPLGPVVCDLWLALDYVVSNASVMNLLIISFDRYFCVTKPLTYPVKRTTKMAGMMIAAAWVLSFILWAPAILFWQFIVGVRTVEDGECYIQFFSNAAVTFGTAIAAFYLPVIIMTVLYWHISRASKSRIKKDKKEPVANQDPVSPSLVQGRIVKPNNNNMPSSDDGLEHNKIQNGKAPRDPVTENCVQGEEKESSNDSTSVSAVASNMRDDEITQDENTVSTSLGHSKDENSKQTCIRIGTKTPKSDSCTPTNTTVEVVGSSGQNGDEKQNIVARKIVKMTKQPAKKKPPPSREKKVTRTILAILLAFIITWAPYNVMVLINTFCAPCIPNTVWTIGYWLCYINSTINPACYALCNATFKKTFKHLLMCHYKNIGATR
Kind of data set: GPCR selectivity cellular assay. Format: cell-based. As to conditions: for pEC50: Agonism, read-out: Agonist Activity (EC50); for pIC50: Antagonism, read-out: Antagonist Activity (IC50). The protocol:
as §1, §2, §3, §4

Data set [2] deals with human MRGPRX2 knock-in mice. Description: Cpd 48/80-induced itch (scratching) behavioral model. Type of data set: in vivo, mouse. As to conditions: 3 mg/kg PO, Cpd 48/80 intradermal 3 h post-dose, scratching over 30 min. An excerpt: The generation and initial characterization of human MRGPRX2 knock-in (KI) mice has been previously reported ([15]). All experimental protocols were approved by the Animal Care and Use Committee at the Johns Hopkins University School of Medicine and studies conducted according to GSK’s Policy on the Care, Welfare and Treatment of Animals. All mice used for this study were 2- to 4-month old males and females (20–30 g) and randomized on body weight and sex using three groups of 18 animals per group.
On the day of the experiment, animals were allowed to acclimatize to the test chamber for 10 min prior to injection. Mice received a single PO dose of Compound B (or vehicle) as a suspension in 1% methylcellulose at a dose level of 3 mg/kg (dose volume 10 mL/kg). Scratching behavior was monitored over 30 min following a single intra-dermal injection of 10 μL of Cpd 48/80 (10 μg/mL) or vehicle (saline) at 3 h post-dose of the antagonist. A bout of scratching was defined as a hindpaw directed continuous scratching movement at the injection site. The scratching behavior scorer was blinded to treatment. […]
Figure 6 Oral treatment with the potent and selective MRGPRX2 antagonist, Compound B (3 mg/kg), blocks Cpd 48/80–induced itch response using human MRGPRX2 knock-in mice. […] Average ± SD blood-free concentration of antagonist measured at end of “itch” observation period was 19 ± 16 nM Compound B.

Experimental findings from PMC11527646, “Pharmacological blockade of the mast cell MRGPRX2 receptor supports investigation of its relevance in skin disorders” (Frontiers in Immunology, 2024) are described below.

Structures are written as SMILES. pEC50, pIC50: −log10 of the molar value. “Also recorded” adds a separate entry of the source. Where two headings read alike, the source gives them in different places.

Chain of 5-HT2A receptor (HTR2A) (P28223 whole entry): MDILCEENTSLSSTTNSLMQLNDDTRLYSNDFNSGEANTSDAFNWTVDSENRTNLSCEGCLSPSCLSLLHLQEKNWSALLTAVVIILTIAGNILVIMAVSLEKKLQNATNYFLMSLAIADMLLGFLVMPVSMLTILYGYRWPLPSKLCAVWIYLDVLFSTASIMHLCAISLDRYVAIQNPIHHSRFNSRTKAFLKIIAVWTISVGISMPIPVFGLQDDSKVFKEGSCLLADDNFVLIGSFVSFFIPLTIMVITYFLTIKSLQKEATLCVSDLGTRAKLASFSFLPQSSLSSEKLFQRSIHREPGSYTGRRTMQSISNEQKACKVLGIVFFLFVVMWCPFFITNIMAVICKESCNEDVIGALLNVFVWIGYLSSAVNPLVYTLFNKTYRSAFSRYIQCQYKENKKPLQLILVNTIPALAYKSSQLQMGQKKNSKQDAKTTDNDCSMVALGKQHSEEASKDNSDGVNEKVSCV
T1 sequence (P29274 whole entry): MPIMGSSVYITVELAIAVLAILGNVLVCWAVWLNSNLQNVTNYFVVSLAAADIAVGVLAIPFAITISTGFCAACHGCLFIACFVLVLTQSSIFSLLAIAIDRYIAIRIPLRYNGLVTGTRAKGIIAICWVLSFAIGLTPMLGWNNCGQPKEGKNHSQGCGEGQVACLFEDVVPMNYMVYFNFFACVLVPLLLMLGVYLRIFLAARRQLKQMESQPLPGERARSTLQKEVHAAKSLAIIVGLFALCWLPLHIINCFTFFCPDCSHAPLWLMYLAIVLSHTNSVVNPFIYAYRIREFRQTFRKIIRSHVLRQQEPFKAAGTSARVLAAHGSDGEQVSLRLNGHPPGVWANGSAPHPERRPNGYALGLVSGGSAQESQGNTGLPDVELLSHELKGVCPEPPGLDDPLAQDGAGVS
T5 sequence (P37288 whole entry): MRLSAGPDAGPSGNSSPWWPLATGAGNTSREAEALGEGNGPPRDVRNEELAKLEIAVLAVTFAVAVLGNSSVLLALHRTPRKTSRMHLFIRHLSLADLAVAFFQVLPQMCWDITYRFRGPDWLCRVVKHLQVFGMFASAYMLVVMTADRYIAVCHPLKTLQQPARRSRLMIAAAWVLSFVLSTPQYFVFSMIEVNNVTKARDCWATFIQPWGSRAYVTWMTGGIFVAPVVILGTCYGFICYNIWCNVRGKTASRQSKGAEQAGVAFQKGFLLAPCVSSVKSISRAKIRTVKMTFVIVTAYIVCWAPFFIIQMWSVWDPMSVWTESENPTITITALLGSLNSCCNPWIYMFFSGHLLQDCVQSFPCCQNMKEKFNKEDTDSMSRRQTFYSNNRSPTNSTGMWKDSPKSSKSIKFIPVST
Chain of NK1 receptor (TACR1) (P25103 whole entry): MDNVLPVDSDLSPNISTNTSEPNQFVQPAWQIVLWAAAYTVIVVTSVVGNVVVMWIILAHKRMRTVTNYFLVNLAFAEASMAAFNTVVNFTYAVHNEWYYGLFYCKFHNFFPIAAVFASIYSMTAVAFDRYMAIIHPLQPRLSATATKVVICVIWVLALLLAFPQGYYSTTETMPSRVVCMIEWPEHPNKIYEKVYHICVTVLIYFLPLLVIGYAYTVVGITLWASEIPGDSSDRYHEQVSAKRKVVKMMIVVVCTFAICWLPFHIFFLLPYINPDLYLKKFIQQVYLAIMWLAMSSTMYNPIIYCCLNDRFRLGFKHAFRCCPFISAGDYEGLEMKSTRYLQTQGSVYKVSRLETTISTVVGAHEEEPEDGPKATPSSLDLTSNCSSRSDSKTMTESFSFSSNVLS
T3 sequence (P35368 whole entry): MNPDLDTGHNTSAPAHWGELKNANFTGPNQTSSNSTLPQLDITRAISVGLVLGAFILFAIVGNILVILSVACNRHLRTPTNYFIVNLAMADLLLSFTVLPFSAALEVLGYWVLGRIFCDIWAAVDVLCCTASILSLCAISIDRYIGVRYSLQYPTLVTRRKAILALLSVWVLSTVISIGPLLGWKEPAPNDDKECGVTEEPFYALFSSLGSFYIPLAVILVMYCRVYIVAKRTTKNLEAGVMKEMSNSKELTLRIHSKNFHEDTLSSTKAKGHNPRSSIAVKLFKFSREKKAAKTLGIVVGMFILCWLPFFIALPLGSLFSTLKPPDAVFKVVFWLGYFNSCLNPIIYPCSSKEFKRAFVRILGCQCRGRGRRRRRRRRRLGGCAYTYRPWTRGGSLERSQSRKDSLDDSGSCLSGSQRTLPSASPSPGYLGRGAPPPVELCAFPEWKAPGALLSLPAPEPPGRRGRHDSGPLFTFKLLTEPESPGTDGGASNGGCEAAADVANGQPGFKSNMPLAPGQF
T2 sequence (P28222 whole entry): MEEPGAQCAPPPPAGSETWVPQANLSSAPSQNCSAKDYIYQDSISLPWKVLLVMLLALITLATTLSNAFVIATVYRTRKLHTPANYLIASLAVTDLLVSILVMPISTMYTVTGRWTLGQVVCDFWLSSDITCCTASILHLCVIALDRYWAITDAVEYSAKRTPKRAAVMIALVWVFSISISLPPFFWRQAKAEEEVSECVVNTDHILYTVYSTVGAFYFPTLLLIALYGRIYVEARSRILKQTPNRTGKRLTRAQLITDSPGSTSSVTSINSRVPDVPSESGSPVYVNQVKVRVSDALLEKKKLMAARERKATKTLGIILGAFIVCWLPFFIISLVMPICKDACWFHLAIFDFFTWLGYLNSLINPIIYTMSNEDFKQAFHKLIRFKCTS

As for `CC1(C)C(C(=O)Nc2ccccn2)C1(C)C` [Compound A], the pEC50 at A2A receptor (ADORA2A) is below 4.00; at 5-HT1B receptor (HTR1B), 4.92; at M1 receptor (CHRM1), below 4.30; at 5-HT2A receptor (HTR2A), below 4.00; on M2 receptor (CHRM2), below 4.30. For the same molecule, the pIC50 in [1] was below 4.60; on M1 receptor (CHRM1) it was below 4.30; at 5-HT2A receptor (HTR2A) it was 4.38; at NK1 receptor (TACR1), below 4.60; at V1A receptor (AVPR1A) it was below 4.30; on M2 receptor (CHRM2), below 4.30.

As to `C[C@@H](C(=O)Nc1cnc(Oc2ccc(F)cc2F)cn1)N1CCC(F)(F)[C@@H](c2cc[n+]([O-])cc2)C1` [Compound B], the pEC50 on A2A receptor (ADORA2A) was below 4.00; on 5-HT1B receptor (HTR1B) it was below 4.30; on M1 receptor (CHRM1) it was below 4.30; at 5-HT2A receptor (HTR2A) (Agonism, read-out: Agonist Activity (EC50)) it was below 4.00; at M2 receptor (CHRM2) it was below 4.30. In [2], the “Effect on Cpd 48/80-induced itch response” value is recorded as “significant blockade; also recorded: completely block”. Moreover, the pIC50 was below 4.60 in data set [1]; below 4.30 on M1 receptor (CHRM1); below 4.00 at 5-HT2A receptor (HTR2A) (Antagonism, read-out: Antagonist Activity (IC50)); below 4.60 at NK1 receptor (TACR1); below 4.30 at V1A receptor (AVPR1A); below 4.30 on M2 receptor (CHRM2). Further, the “In vivo PK profile” value in “Pharmacokinetic profile” is recorded as “good in vivo PK profile”. Moreover, the Oral bioavailability entry in “Pharmacokinetic profile” (in vivo, po) was “good oral bioavailability”.
